The results in this text go back to US10065990B2, “Cyclic peptide compound, and preparation method, pharmaceutical composition and use thereof” (HANGZHOU GUANYU BIO-MEDICAL CO., LTD, priority 2013, dated 2018).

In one assay the target is T1, HDAC7 (Homo sapiens, UniProt Q8WUI4).
T1 sequence (Q8WUI4 1-952): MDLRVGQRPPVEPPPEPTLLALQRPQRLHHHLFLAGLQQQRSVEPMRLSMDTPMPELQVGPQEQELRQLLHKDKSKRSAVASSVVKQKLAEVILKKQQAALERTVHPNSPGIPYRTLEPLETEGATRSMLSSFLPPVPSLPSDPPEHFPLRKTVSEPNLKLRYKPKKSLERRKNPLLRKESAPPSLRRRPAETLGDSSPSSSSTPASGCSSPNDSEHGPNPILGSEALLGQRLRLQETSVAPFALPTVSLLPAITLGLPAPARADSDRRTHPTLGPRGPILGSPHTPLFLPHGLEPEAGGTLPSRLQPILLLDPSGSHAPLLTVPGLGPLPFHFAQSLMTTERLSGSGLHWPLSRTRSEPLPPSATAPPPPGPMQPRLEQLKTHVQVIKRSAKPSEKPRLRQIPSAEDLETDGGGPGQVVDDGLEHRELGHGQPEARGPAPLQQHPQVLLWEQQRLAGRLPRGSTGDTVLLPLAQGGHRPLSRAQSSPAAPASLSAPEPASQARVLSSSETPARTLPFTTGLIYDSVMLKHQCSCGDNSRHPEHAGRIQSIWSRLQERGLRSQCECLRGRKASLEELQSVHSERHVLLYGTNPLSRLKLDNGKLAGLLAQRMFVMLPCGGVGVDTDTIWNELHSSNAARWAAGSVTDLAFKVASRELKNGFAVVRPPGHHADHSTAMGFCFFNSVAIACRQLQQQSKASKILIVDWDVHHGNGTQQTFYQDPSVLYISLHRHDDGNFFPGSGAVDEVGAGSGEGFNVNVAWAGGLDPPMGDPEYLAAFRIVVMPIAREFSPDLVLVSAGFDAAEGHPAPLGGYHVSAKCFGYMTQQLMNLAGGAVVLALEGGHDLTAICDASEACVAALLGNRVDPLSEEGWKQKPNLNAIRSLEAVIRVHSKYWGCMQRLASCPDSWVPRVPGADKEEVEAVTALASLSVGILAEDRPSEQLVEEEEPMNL
In words: HDAC biochemical activity measurement (fluorescent substrate deacetylation).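 Also: fluorogenic deacetylation assay using acetyl-lysine substrate at 20 µM, enzyme and compound incubated 30 min at 37 °C, then developer added, fluorescence read at 360/460 nm.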 The settings on record: HDAC7; 37° C. 30 minutes.

Assay [1] has as its system PANC-1 (Pac-1, human pancreatic cancer cells). The assay is described as follows: MTT cancer cell growth inhibition. Type of assay: cell-based. To be noted: MTT, 72 hours incubation, read-out: GI50 PAN. An outline of the steps:
(§1)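 Read-out was formazan absorbance at 570 nm after a 4 h MTT step and DMSO solubilisation, converted to cell viability and fitted for GI50. Beforehand, cells (1500/well, overnight attachment) were treated with compound at 10^−5 to 10^−10 M for 72 h at 37° C.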

The subject of assay [2] is K562 (human leukemia cells). The assay is described as follows: MTT cancer cell growth inhibition. The settings on record: MTT, 72 hours incubation, K562 cells, read-out: GI50 K562. Type of assay: cell-based. An outline of the steps: as §1
Assay [3] concerns A549 (human lung cancer cells). The assay is described as follows: MTT cancer cell growth inhibition. The format is cell-based. The settings on record: MTT, 72 hours incubation, read-out: GI50 A54. An outline of the steps:
as §1

Assay [4] deals with KBM-5 (human chronic myelogenous leukemia). In words: MTT cancer cell growth inhibition. Type of assay: cell-based. The settings on record: MTT, 72 hours incubation, KBM-5 cells, read-out: GI50 KBM-5. The gist of the method: as §1
Assay [5] has as its system Huh-7 (human hepatoma cells). The assay is described as follows: MTT cancer cell growth inhibition. The format is cell-based. To be noted: MTT, 72 hours incubation, Huh-7 cells, read-out: GI50 Huh-7. An outline of the steps:
as §1

In assay [6] the test system is U937 (human leukemia cells). The assay is described as follows: MTT cancer cell growth inhibition. The format is cell-based. To be noted: MTT, 72 hours incubation, read-out: GI50 U93. An outline of the steps:
as §1

Assay [7] concerns MOLT-4 (human acute lymphoblastic leukemia cells). The assay is described as follows: MTT cancer cell growth inhibition. Type of assay: cell-based. The settings on record: MTT, 72 hours incubation, read-out: GI50 Mol. An outline of the steps:
as §1

Assay [8] has as its system Bel-7402 (human hepatoma cells). In words: MTT cancer cell growth inhibition. The format is cell-based. To be noted: MTT, 72 hours incubation, Bel-7402 cells, read-out: GI50 Bel-7402. The gist of the method: as §1
Assay [9] relates to lncap (prostate cancer cells). The assay is described as follows: MTT cancer cell growth inhibition. The format is cell-based. The settings on record: MTT, 72 hours incubation, read-out: GI50 lnca. An outline of the steps: as §1
Assay [10] relates to BGC-823 (human gastric cancer cells). The assay is described as follows: MTT cancer cell growth inhibition. Type of assay: cell-based. The settings on record: MTT, 72 hours incubation, read-out: GI50 BG. An outline of the steps:
as §1

Assay [11] relates to H1975 (non-small cell lung adenocarcinoma). In words: MTT cancer cell growth inhibition. The format is cell-based. The settings on record: MTT, 72 hours incubation, H1975 cells, read-out: GI50 H1975. An outline of the steps:
as §1

Assay [12] has as its system KBM5-T315I (human chronic myelogenous leukemia). In words: MTT cancer cell growth inhibition. Type of assay: cell-based. To be noted: MTT, 72 hours incubation, KBM5-T315I cells, read-out: GI50 KBM5-T315I. The gist of the method: as §1
Assay [13] deals with HCC827 (human non-small cell lung cancer cells). In words: MTT cancer cell growth inhibition. Type of assay: cell-based. To be noted: MTT, 72 hours incubation, HCC827 cells, read-out: GI50 HCC827. The gist of the method: as §1
Assay [14] concerns MCF-7 (human breast cancer cells). In words: MTT cancer cell growth inhibition. The format is cell-based. To be noted: 72 hours incubation, read-out: GI50 MCF. The gist of the method:
as §1

The test system of assay [15] is SGC-7901 (human gastric cancer cells). The assay is described as follows: MTT cancer cell growth inhibition. Type of assay: cell-based. To be noted: MTT, 72 hours incubation, SGC-7901 cells, read-out: GI50 SGC-7901. The gist of the method: as §1
Assay [16] deals with MDA-MB-231 (breast cancer cells). In words: MTT cancer cell growth inhibition. Type of assay: cell-based. The gist of the method:
as §1

Assay [17] relates to DU145 (human prostate cancer cells). The assay is described as follows: MTT cancer cell growth inhibition. To be noted: MTT, 72 hours incubation, read-out: GI50 Du1. Type of assay: cell-based. An outline of the steps:
as §1

In assay [18] the test system is HT1080 (human fibrosarcoma cells). In words: MTT cancer cell growth inhibition. Type of assay: cell-based. The settings on record: MTT, 72 hours incubation, read-out: GI50 HT1. An outline of the steps: as §1
Assay [19] deals with Hela (human cervical cancer cells). The assay is described as follows: MTT cancer cell growth inhibition. The settings on record: MTT, 72 hours incubation, read-out: GI50 Hela. Type of assay: cell-based. The gist of the method:
as §1

For assay [20], the system named is N-87 (human gastric cancer cells). In words: MTT cancer cell growth inhibition. The settings on record: MTT, 72 hours incubation, N-87 cells, read-out: GI50 N-87. The format is cell-based. An outline of the steps: as §1
The mark [21] stands for this setting: Homo sapiens, MDA-MB-231, 72 h, read-out: GI50 MDA-MB-231, MTT, 72 hours incubation, MDA-MB-231 cells.

Read-outs that look alike come from different tables or passages of the source.

Broadly, the GI50 is the concentration at which growth is held to half of that of the control. Regarding `C/C=C1\NC(=O)c2ccc(SC)c(n2)CNC(=O)C[C@@H](/C=C/CCSC(C)=O)OC(=O)[C@H](C(C)C)NC1=O` [Compound 209], the “IC50 HDAC7” value against HDAC7 is “no activity”. Also, the GI50 in assay [1] (PANC-1 cells) came out at 0.02 µM; in assay [2] it was 0.039 µM; in [3] (A549 cells) it was 0.02 µM; in assay [4], 0.046 µM; in assay [5] it was 0.023 µM; in assay [6] (U937 cells), 0.03 µM. The GI50 in assay [7] (MOLT-4 cells) worked out at 0.07 µM; in assay [8], 0.013 µM; in assay [9] (lncap cells), 0.02 µM; in assay [10] (BGC-823 cells), 0.04 µM; in [11], 0.017 µM; in assay [12] it was 0.031 µM. Also, the GI50 in assay [13] is 0.085 µM; in assay [14] (MCF-7 cells), 0.02 µM; in [15], 0.041 µM; in assay [16] (read-out: GI50 MDA-MB-231, MTT, 72 hours incubation, MDA-MB-231 cells), 0.035 µM; in [17] (DU145 cells) it was 0.07 µM; in assay [18] (HT1080 cells) it was 0.03 µM. Moreover, the GI50 in assay [19] (Hela cells) came to 0.09 µM; in assay [20], 0.051 µM.
On to `C/C=C1\NC(=O)c2cc(F)cc(n2)CNC(=O)C[C@@H](/C=C/CCSC(C)=O)OC(=O)[C@H](CCCCN)NC1=O` [Example 73], for which, on HDAC7, the “IC50 HDAC7” value is on record as “no activity”. In addition, the GI50 in assay [1] (Homo sapiens, PANC-1, 72 h) is 0.05 µM; in assay [2] (Homo sapiens, K562, 72 h), 0.035 µM; in assay [3] (Homo sapiens, A549, 72 h), 0.02 µM; in assay [4] (Homo sapiens, KBM5, 72 h), 0.086 µM; in [5] (Homo sapiens, Huh-7, 72 h), 0.035 µM; in [6] (Homo sapiens, U-937, 72 h), 0.03 µM. Also, the GI50 was 0.03 µM in assay [7] (Homo sapiens, MOLT-4, 72 h); 0.052 µM in assay [8] (Homo sapiens, Bel-7402, 72 h); 0.03 µM in assay [9] (Homo sapiens, LNCaP, 72 h); 0.03 µM in assay [10] (Homo sapiens, BGC-823, 72 h); 0.037 µM in assay [11] (Homo sapiens, NCI-H1975, 72 h); 0.024 µM in assay [12] (Homo sapiens, 72 h). The 50% growth inhibitory concentration (GI50) in assay [13] (Homo sapiens, HCC827, 72 h) is 0.052 µM; in assay [14] (Homo sapiens, MCF7, 72 h) it was 0.02 µM; in [15] (Homo sapiens, SGC-7901, 72 h), 0.028 µM; in [16] (setting [21]), 0.035 µM; in assay [17] (Homo sapiens, DU-145, 72 h), 0.03 µM; in assay [18] (Homo sapiens, HT-1080, 72 h), 0.05 µM. Moreover, the GI50 in assay [19] (Homo sapiens, HeLa, 72 h) amounted to 0.08 µM; in assay [20] (Homo sapiens, 72 h), 0.038 µM.
Consider `C/C=C1\NC(=O)c2nc(ccc2SC)CNC(=O)C[C@@H](/C=C/CCSC(C)=O)OC(=O)[C@H](C(C)C)NC1=O` [Compound 165], for which the “IC50 HDAC7” value against HDAC7 was “no activity”. The GI50 worked out at 0.07 µM in assay [1] (Homo sapiens, PANC-1, 72 h, PANC-1 cells); 0.057 µM in assay [2] (Homo sapiens, K562, 72 h); 0.03 µM in [3] (Homo sapiens, A549, 72 h, A549 cells); 0.041 µM in assay [4] (Homo sapiens, KBM5, 72 h); 0.028 µM in [5] (Homo sapiens, Huh-7, 72 h); 0.05 µM in assay [6] (Homo sapiens, U-937, 72 h, U937 cells). Besides, the GI50 in assay [7] (Homo sapiens, MOLT-4, 72 h, MOLT-4 cells) stood at 0.04 µM; in assay [8] (Homo sapiens, Bel-7402, 72 h) it was 0.03 µM; in assay [9] (Homo sapiens, LNCaP, 72 h, lncap cells) it was 0.02 µM; in [10] (Homo sapiens, BGC-823, 72 h, BGC-823 cells), 0.02 µM; in [11] (Homo sapiens, NCI-H1975, 72 h) it was 0.012 µM; in assay [12] (Homo sapiens, 72 h) it was 0.034 µM. Also, the GI50 is 0.043 µM in assay [13] (Homo sapiens, HCC827, 72 h); 0.03 µM in assay [14] (Homo sapiens, MCF7, 72 h, MCF-7 cells); 0.076 µM in assay [15] (Homo sapiens, SGC-7901, 72 h); 0.053 µM in assay [16] (setting [21]); 0.06 µM in assay [17] (Homo sapiens, DU-145, 72 h, DU145 cells); 0.06 µM in [18] (Homo sapiens, HT-1080, 72 h, HT1080 cells). Moreover, the 50% growth inhibitory concentration (GI50) is 0.06 µM in assay [19] (Homo sapiens, HeLa, 72 h, Hela cells) and 0.032 µM in assay [20] (Homo sapiens, 72 h).
